What was measured:
[1] = biological target: Human immunodeficiency virus type 1 protease (Human immunodeficiency virus 1, UniProt Q72874); assay: Ability to inhibit purified recombinant HIV-1 protease.
Cathepsin D = Cathepsin D (Homo sapiens, UniProt P07339); assay: Ability to inhibit the human Native cathepsin D aspartic protease enzyme
Cathepsin E = biological target: T1, Cathepsin E (Homo sapiens, UniProt P14091); assay: Ability to inhibit the human Native cathepsin E aspartic protease enzyme
T1 sequence (P14091 whole entry): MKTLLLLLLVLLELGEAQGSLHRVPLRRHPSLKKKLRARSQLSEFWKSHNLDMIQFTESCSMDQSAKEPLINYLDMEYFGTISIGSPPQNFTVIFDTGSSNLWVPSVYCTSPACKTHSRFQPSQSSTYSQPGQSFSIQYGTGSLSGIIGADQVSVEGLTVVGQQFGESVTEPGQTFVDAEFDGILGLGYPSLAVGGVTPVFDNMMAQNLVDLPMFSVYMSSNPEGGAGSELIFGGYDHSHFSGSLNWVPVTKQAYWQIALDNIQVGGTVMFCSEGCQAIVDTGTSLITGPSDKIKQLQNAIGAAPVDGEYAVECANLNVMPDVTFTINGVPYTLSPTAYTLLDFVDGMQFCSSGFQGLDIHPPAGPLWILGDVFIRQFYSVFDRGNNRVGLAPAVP

[2] = In vitro toxic concentration against HIV-1 IIIb H9-infected cells; format: cell-based; conditions: human, HIV-1 IIIb-infected H9 cells; read-out: TC50 (the source's name)
Renin = biological target: T2, Renin (Homo sapiens, UniProt P00797); assay: Ability to inhibit the human recombinant renin aspartic protease enzyme
T2 sequence (P00797 whole entry): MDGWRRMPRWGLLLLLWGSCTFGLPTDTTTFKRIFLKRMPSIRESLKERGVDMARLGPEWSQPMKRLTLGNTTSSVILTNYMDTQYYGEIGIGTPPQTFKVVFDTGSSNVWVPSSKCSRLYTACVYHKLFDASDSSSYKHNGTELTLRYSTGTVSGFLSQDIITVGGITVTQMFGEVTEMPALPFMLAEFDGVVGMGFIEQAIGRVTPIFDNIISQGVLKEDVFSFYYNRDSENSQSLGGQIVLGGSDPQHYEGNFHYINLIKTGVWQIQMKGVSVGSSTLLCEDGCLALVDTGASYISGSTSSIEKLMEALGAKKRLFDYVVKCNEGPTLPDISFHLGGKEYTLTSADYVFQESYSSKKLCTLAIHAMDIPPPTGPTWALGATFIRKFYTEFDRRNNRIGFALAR

Sequence of Cathepsin D (P07339 65-162 limits assumed): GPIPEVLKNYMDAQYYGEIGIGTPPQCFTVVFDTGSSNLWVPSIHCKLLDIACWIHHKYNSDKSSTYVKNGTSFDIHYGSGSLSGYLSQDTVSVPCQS
Sequence of Cathepsin D (P07339 169-412 limits assumed): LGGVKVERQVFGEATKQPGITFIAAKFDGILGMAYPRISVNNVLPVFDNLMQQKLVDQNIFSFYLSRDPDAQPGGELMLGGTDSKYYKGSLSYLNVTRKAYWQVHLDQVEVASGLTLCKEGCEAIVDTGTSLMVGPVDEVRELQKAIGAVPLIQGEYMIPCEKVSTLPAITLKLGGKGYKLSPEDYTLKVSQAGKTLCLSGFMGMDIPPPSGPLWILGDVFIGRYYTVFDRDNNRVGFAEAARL

Row | IC50 [1] | SMILES | CC50 [2] | other results
1 | 541 nM | O=c1cc(-c2ccccc2)oc(O)c1C(CC1CCCC1)SC1CCCCC1 (stereo unspecified) | – | –
2 | – | O=c1cc(-c2ccccc2)oc(O)c1C(CC1CC1)SC1CCCC1 (stereo unspecified) | – | Ki [1]: 0.069 nM
3 | 84 nM | O=c1cc(-c2ccccc2)oc(O)c1C(CC1CC1)SCc1ccccc1 (stereo unspecified) | 68000 nM | IC50 (Cathepsin D): > 40000 nM; IC50 (Cathepsin E): > 40000 nM; IC50 (Renin): > 10000 nM
4 | 2450 nM | O=c1cc(-c2ccccc2)oc(O)c1C(Sc1ccc2ccccc2c1)c1ccccc1 (stereo unspecified) | – | –
5 | 780 nM | O=c1cc(-c2ccccc2)oc(O)c1C(Sc1ccccc1)c1ccccc1 (stereo unspecified) | – | –
6 | 2440 nM | O=c1cc(-c2ccccc2)oc(O)c1C(Sc1ccccc1)C1CCCCC1 (stereo unspecified) | – | –
7 | 147 nM | O=c1cc(-c2ccccc2)oc(O)c1C(CC1CC1)SC1CCCCC1 (stereo unspecified) | 67000 nM | –
8 | 7820 nM | O=c1cc(-c2ccccc2)oc(O)c1C(Sc1ccccc1)c1ccc2ccccc2c1 (stereo unspecified) | – | –
9 | 225 nM | O=c1cc(-c2ccccc2)oc(O)c1C(SC1CCCC1)C1CCCC1 (stereo unspecified) | 70000 nM | –
10 | 480 nM | O=c1cc(-c2ccccc2)oc(O)c1C(SC1CCCCC1)c1ccccc1 (stereo unspecified) | – | –
11 | 84300 nM | O=c1cc(-c2ccccc2)oc(O)c1CSc1ccccc1 | – | –

Row | SMILES | IC50 [1] | CC50 [2] | other results
12 | CC(C)CC(SC1CCCC1)c1c(O)cc(-c2ccccc2)oc1=O (stereo unspecified) | 58 nM | 28000 nM | IC50 (Cathepsin D): > 40000 nM; IC50 (Cathepsin E): > 40000 nM; IC50 (Renin): > 10000 nM
13 | CC(C)CC(Sc1ccccc1)c1c(O)cc(-c2ccccc2)oc1=O (stereo unspecified) | 410 nM | – | –
14 | CC(C)(C)CC(SC1CCCCC1)c1c(O)cc(-c2ccccc2)oc1=O (stereo unspecified) | 300 nM | – | –
15 | CC(C)CCC(Sc1ccccc1)c1c(O)cc(-c2ccccc2)oc1=O (stereo unspecified) | 390 nM | – | –
16 | CC(C)CC(SCc1ccccc1)c1c(O)cc(-c2ccccc2)oc1=O (stereo unspecified) | 260 nM | 67000 nM | –
17 | O=c1cc(-c2ccccc2)oc(O)c1C(SCc1ccccc1)c1ccccc1 (stereo unspecified) | 480 nM | 61000 nM | –
18 | CC(C)CC(SCC1CCCCC1)c1c(O)cc(-c2ccccc2)oc1=O (stereo unspecified) | 848 nM | – | –
19 | CC(C)CC(SC1CCCCC1)c1c(O)cc(-c2ccccc2)oc1=O (stereo unspecified) | 320 nM | – | –
